Columns and labels:
[1] = system: morningglory; experiment: Test B pre/postemergence morningglory; type: in vivo, Ipomoea hederacea
In short: (§1)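 Test chemicals in a non-phytotoxic solvent mixture with surfactant were sprayed preemergence onto planted seeds and postemergence onto plants 2 to 18 cm tall (1- to 4-leaf stage). After twelve to sixteen days in a greenhouse, injury was visually rated against untreated controls from 0 (no effect) to 10 (complete control).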

[2] = system: rape; experiment: Test B pre/postemergence rape; type: in vivo, Brassica napus
In short: as §1

[3] = system: wheat; experiment: Test B pre/postemergence wheat; type: in vivo, Triticum aestivum
In short: as §1

[4] = system: duck salad; experiment: Test B flood test duck salad; type: in vivo, Heteranthera limosa
In short: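 Each value is a visual injury score relative to controls, with 10 meaning complete control and 0 no effect. Evaluation took place twelve to sixteen days after the 2-leaf-stage plants were treated and kept in the greenhouse.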

[5] = Preemergence, Rate 62 g/ha, scale of 0 to 10 where 0 is no effect and 10 is complete control
[6] = Preemergence, Rate 250 g/ha, scale of 0 to 10 where 0 is no effect and 10 is complete control
[7] = Preemergence, Rate 500 g/ha, scale of 0 to 10 where 0 is no effect and 10 is complete control
[8] = Rate 62 g/ha, Postemergence, scale 0 to 10 (0 no effect, 10 complete control)
[9] = Rate 125 g/ha, Postemergence, scale of 0 to 10 where 0 is no effect and 10 is complete control
[10] = Rate 250 g/ha, Postemergence, scale of 0 to 10 where 0 is no effect and 10 is complete control
[11] = Pre-emergence, Rate 1000 g/ha, scale 0 to 10 (0 no effect, 10 complete control)
[12] = Rate 125 g/ha, Pre-emergence, flood test species, scale 0 to 10 where 0 is no effect and 10 is complete control
[13] = Rate 250 g/ha, Pre-emergence, flood-test species, scale 0 to 10, 0 is no effect, 10 is complete control
[14] = Rate 500 g/ha, Pre-emergence, flood test species, scale 0 to 10 (0 no effect, 10 complete control)
[15] = Rate 62 g/ha, headed Pre-emergence (flood test species), scale 0 to 10 (0 no effect, 10 complete control)
[16] = Rate 500 g/ha, Postemergence, scale 0 to 10, 0 no effect, 10 complete control
[17] = Postemergence, Rate 125 g/ha, scale 0 to 10, 0 is no effect, 10 is complete control
[18] = Postemergence, Rate 250 g/ha, scale 0 to 10, 0 is no effect, 10 is complete control
[19] = Preemergence, Rate 62 g/ha, scale 0 to 10 (0 no effect, 10 complete control)
[20] = Rate 62 g/ha, Postemergence, scale of 0 to 10 where 0 is no effect and 10 is complete control

CCN(C(=O)n1oc(=O)n(C2CCCCC2)c1=O)C1CCCCC1 [Compound 308]
Morningglory plant response rating [1, 5]: 0 | Morningglory plant response rating (0 to 10 scale) ([1]; Preemergence, Rate 125 g/ha): 0 | Morningglory plant response rating [1, 6]: 0 | Morningglory plant response rating [1, 7]: 0 | Morningglory plant response rating [1, 8]: 0 | Morningglory plant response rating [1, 9]: 0 | Plant response rating, Morningglory [1, 10]: 2 | Rape plant response rating [2, 5]: 0 | Rape plant response rating (0 to 10 scale) ([2]; Preemergence, Rate 125 g/ha): 0 | Rape plant response rating [2, 6]: 0 | Rape plant response rating [2, 7]: 0 | Rape plant response rating [2, 8]: 0 | Rape plant response rating [2, 9]: 0 | Plant response rating, Rape [2, 10]: 0 | Wheat plant response rating [3, 5]: 0 | Wheat plant response rating (0 to 10 scale) ([3]; Preemergence, Rate 125 g/ha): 0 | Wheat plant response rating [3, 6]: 0 | Wheat plant response rating [3, 7]: 0 | Wheat plant response rating [3, 8]: 0 | Wheat plant response rating [3, 9]: 0 | Plant response rating, Wheat [3, 10]: 0 | Ducksalad plant response rating [4, 11]: 0 | Ducksalad plant response rating [4, 12]: 0 | Ducksalad plant response rating [4, 13]: 0 | Ducksalad plant response rating [4, 14]: 0

CC(C)n1c(=O)on(C(=O)N(c2ccc(Cl)cc2Cl)C2CCC2)c1=O [Compound 319]
Morningglory plant response rating [1, 5]: 0 | Morningglory plant response rating (0 to 10 scale) ([1]; Preemergence, Rate 125 g/ha): 0 | Morningglory plant response rating [1, 6]: 0 | Morningglory plant response rating [1, 7]: 0 | Morningglory plant response rating [1, 8]: 2 | Morningglory plant response rating [1, 9]: 2 | Plant response rating, Morningglory [1, 10]: 4 | Rape plant response rating [2, 5]: 0 | Rape plant response rating (0 to 10 scale) ([2]; Preemergence, Rate 125 g/ha): 0 | Rape plant response rating [2, 6]: 0 | Rape plant response rating [2, 7]: 0 | Rape plant response rating [2, 8]: 0 | Rape plant response rating [2, 9]: 0 | Plant response rating, Rape [2, 10]: 0 | Wheat plant response rating [3, 5]: 0 | Wheat plant response rating (0 to 10 scale) ([3]; Preemergence, Rate 125 g/ha): 0 | Wheat plant response rating [3, 6]: 0 | Wheat plant response rating [3, 7]: 0 | Wheat plant response rating [3, 8]: 0 | Wheat plant response rating [3, 9]: 0 | Plant response rating, Wheat [3, 10]: 0 | Ducksalad plant response rating [4, 15]: 0 | Ducksalad plant response rating [4, 12]: 0 | Ducksalad plant response rating [4, 13]: 0 | Ducksalad plant response rating [4, 14]: 0

C=CCn1c(=O)on(C(=O)N(c2ccc(Cl)cc2)C(C)C2CC2)c1=O (stereo not drawn) [Compound 325]
Morningglory plant response rating [1, 5]: 0 | Morningglory plant response rating (0 to 10 scale) ([1]; Preemergence, Rate 125 g/ha): 0 | Morningglory plant response rating [1, 6]: 0 | Morningglory plant response rating [1, 7]: 0 | Morningglory plant response rating [1, 8]: 4 | Morningglory plant response rating [1, 9]: 6 | Plant response rating, Morningglory [1, 10]: 8 | Plant response rating, Morningglory [1, 16]: 8 | Rape plant response rating [2, 5]: 0 | Rape plant response rating (0 to 10 scale) ([2]; Preemergence, Rate 125 g/ha): 0 | Rape plant response rating [2, 6]: 0 | Rape plant response rating [2, 7]: 0 | Rape plant response rating [2, 8]: 0 | Rape plant response rating [2, 9]: 0 | Plant response rating, Rape [2, 10]: 0 | Plant response rating, Rape [2, 16]: 2 | Wheat plant response rating [3, 5]: 0 | Wheat plant response rating (0 to 10 scale) ([3]; Preemergence, Rate 125 g/ha): 0 | Wheat plant response rating [3, 6]: 0 | Wheat plant response rating [3, 7]: 0 | Wheat plant response rating [3, 8]: 0 | Wheat plant response rating [3, 9]: 0 | Plant response rating, Wheat [3, 10]: 2 | Plant response rating, Wheat [3, 16]: 5 | Ducksalad plant response rating [4, 15]: 0 | Ducksalad plant response rating [4, 12]: 0 | Ducksalad plant response rating [4, 13]: 0 | Ducksalad plant response rating [4, 14]: 0

CC(C)N(C(=O)n1oc(=O)n(-c2ccc3ccccc3c2)c1=O)c1ccc(Cl)cc1 [Compound 333]
Plant response rating, Morningglory [1, 17]: 0 | Morningglory plant response rating [1, 5]: 0 | Morningglory plant response rating (0 to 10 scale) ([1]; Preemergence, Rate 125 g/ha): 0 | Morningglory plant response rating [1, 6]: 0 | Morningglory plant response rating [1, 7]: 0 | Morningglory plant response rating [1, 8]: 0 | Plant response rating, Morningglory [1, 16]: 0 | Plant response rating, Rape [2, 17]: 0 | Rape plant response rating [2, 5]: 0 | Rape plant response rating (0 to 10 scale) ([2]; Preemergence, Rate 125 g/ha): 0 | Rape plant response rating [2, 6]: 0 | Rape plant response rating [2, 7]: 0 | Rape plant response rating [2, 8]: 0 | Plant response rating, Rape [2, 16]: 0 | Plant response rating, Wheat [3, 17]: 0 | Wheat plant response rating [3, 5]: 0 | Wheat plant response rating (0 to 10 scale) ([3]; Preemergence, Rate 125 g/ha): 0 | Wheat plant response rating [3, 6]: 0 | Wheat plant response rating [3, 7]: 0 | Wheat plant response rating [3, 8]: 0 | Plant response rating, Wheat [3, 16]: 0 | Ducksalad plant response rating [4, 11]: 0 | Ducksalad plant response rating [4, 12]: 0 | Ducksalad plant response rating [4, 13]: 0 | Ducksalad plant response rating [4, 14]: 0

Cc1ccc(N(C(=O)n2oc(=O)n(-c3ccc4ccccc4c3)c2=O)C(C)C)cc1 [Compound 334]
Plant response rating, Morningglory [1, 17]: 0 | Morningglory plant response rating [1, 5]: 0 | Morningglory plant response rating (0 to 10 scale) ([1]; Preemergence, Rate 125 g/ha): 0 | Morningglory plant response rating [1, 6]: 0 | Morningglory plant response rating [1, 7]: 0 | Morningglory plant response rating [1, 8]: 0 | Plant response rating, Morningglory [1, 16]: 0 | Plant response rating, Rape [2, 17]: 0 | Rape plant response rating [2, 5]: 0 | Rape plant response rating (0 to 10 scale) ([2]; Preemergence, Rate 125 g/ha): 0 | Rape plant response rating [2, 6]: 0 | Rape plant response rating [2, 7]: 0 | Rape plant response rating [2, 8]: 0 | Plant response rating, Rape [2, 16]: 0 | Plant response rating, Wheat [3, 17]: 0 | Wheat plant response rating [3, 5]: 0 | Wheat plant response rating (0 to 10 scale) ([3]; Preemergence, Rate 125 g/ha): 0 | Wheat plant response rating [3, 6]: 0 | Wheat plant response rating [3, 7]: 0 | Wheat plant response rating [3, 8]: 0 | Plant response rating, Wheat [3, 16]: 0 | Ducksalad plant response rating [4, 15]: 0 | Ducksalad plant response rating [4, 12]: 0 | Ducksalad plant response rating [4, 13]: 0 | Ducksalad plant response rating [4, 14]: 0

Cc1c(-n2c(=O)on(C(=O)N(c3ccc(Cl)cc3)C(C)C)c2=O)ccc2ccccc12 [Compound 336]
Plant response rating, Morningglory [1, 17]: 0 | Morningglory plant response rating [1, 5]: 0 | Morningglory plant response rating (0 to 10 scale) ([1]; Preemergence, Rate 125 g/ha): 0 | Morningglory plant response rating [1, 6]: 0 | Morningglory plant response rating [1, 7]: 0 | Morningglory plant response rating [1, 8]: 0 | Plant response rating, Morningglory [1, 16]: 0 | Plant response rating, Rape [2, 17]: 0 | Rape plant response rating [2, 5]: 0 | Rape plant response rating (0 to 10 scale) ([2]; Preemergence, Rate 125 g/ha): 0 | Rape plant response rating [2, 6]: 0 | Rape plant response rating [2, 7]: 0 | Rape plant response rating [2, 8]: 0 | Plant response rating, Rape [2, 16]: 0 | Plant response rating, Wheat [3, 17]: 0 | Wheat plant response rating [3, 5]: 0 | Wheat plant response rating (0 to 10 scale) ([3]; Preemergence, Rate 125 g/ha): 0 | Wheat plant response rating [3, 6]: 0 | Wheat plant response rating [3, 7]: 0 | Wheat plant response rating [3, 8]: 0 | Plant response rating, Wheat [3, 16]: 0 | Ducksalad plant response rating [4, 15]: 0 | Ducksalad plant response rating [4, 12]: 0 | Ducksalad plant response rating [4, 13]: 0 | Ducksalad plant response rating [4, 14]: 0

Cc1nsc(Cl)c1Cn1c(=O)on(C(=O)N(c2ccccc2)C(C)C)c1=O [Compound 374]
Plant response rating, Morningglory [1, 17]: 5 | Plant response rating, Morningglory [1, 18]: 10 | Plant response rating, Morningglory [1, 19]: 0 | Morningglory plant response rating (0 to 10 scale) ([1]; Preemergence, Rate 125 g/ha): 0 | Morningglory plant response rating [1, 6]: 0 | Morningglory plant response rating [1, 7]: 0 | Plant response rating, Morningglory [1, 16]: 10 | Plant response rating, Rape [2, 17]: 2 | Plant response rating, Rape [2, 18]: 2 | Plant response rating, Rape [2, 19]: 0 | Rape plant response rating (0 to 10 scale) ([2]; Preemergence, Rate 125 g/ha): 0 | Rape plant response rating [2, 6]: 2 | Rape plant response rating [2, 7]: 7 | Rape plant response rating [2, 20]: 0 | Plant response rating, Rape [2, 16]: 7 | Plant response rating, Wheat [3, 17]: 0 | Plant response rating, Wheat [3, 18]: 0 | Plant response rating, Wheat [3, 19]: 0 | Wheat plant response rating (0 to 10 scale) ([3]; Preemergence, Rate 125 g/ha): 0 | Wheat plant response rating [3, 6]: 0 | Wheat plant response rating [3, 7]: 0 | Wheat plant response rating [3, 20]: 0 | Plant response rating, Wheat [3, 16]: 0 | Plant response rating, Ducksalad (0 to 10 scale, 0 is no effect, 10 is complete control) ([4]; Rate 62 g/ha, flood test species, Pre-emergence, visual evaluation after twelve to sixteen days): 0 | Ducksalad plant response rating (0 to 10 scale, 0 is no effect, 10 is complete control) ([4]; Rate 125 g/ha, under heading Pre-emergence, flood test species, visual evaluation after twelve to sixteen days): 0 | Ducksalad plant response rating [4, 13]: 0 | Ducksalad plant response rating [4, 14]: 0

— patent US6737383B1, “Herbicidal oxadiazolidines” (priority 1999, dated 2004)
